Source: ChEMBL document CHEMBL3046402, “Synthesis of substituted benzo[d]thiazol-2-ylcarbamates as potential anticonvulsants” (2013)
Activity calls are given as the source filed them. The calls are words filed in the database; no cut-off is given here.

Assays:
Mus musculus [1] = test: Anticonvulsant activity in Swiss albino Mus musculus (mouse) assessed as protection against maximal electric shock-induced death at 35 mg/kg administered 30 min prior to maximal electric shock-challenge; type: functional, organism-based; parameters: dose 35 mg/kg
Mus musculus [2] = test: Anticonvulsant activity in Swiss albino Mus musculus (mouse) assessed protection against PTZ-induced clonic convulsion at 35 mg/kg administered 60 min prior to PTZ-challenge measured up to 30 min relative to control; type: functional
Mus musculus [3] = test: Anticonvulsant activity in Swiss albino Mus musculus (mouse) assessed as latency time of maximal electric shock-induced clonus onset at 35 mg/kg administered 30 min prior to maximal electric shock-challenge (reference value: 3.16 +/- 0.0833 min); type: functional
Mus musculus [4] = test: Anticonvulsant activity in Swiss albino Mus musculus (mouse) assessed as time duration of maximal electric shock-induced tonic extension at 35 mg/kg administered 30 min prior to maximal electric shock-challenge (reference value: 20.66 +/- 0.8433 secs); type: functional
Mus musculus [5] = test: Anticonvulsant activity against maximal electric shock-induced seizures in Swiss albino Mus musculus (mouse) assessed as time duration of tonic flexions at 35 mg/kg administered 30 min prior to maximal electric shock-challenge (reference value: 0 secs); type: functional
Mus musculus [6] = test: Anticonvulsant activity in Swiss albino Mus musculus (mouse) assessed as time of onset of PTZ-induced clonic convulsion at 35 mg/kg administered 60 min prior to PTZ-challenge (reference value: 59.166 +/- 0.04216 Secs); type: functional
Mus musculus [7] = test: Anticonvulsant activity in Swiss albino Mus musculus (mouse) assessed as protection against maximal electric shock-induced death at 20 mg/kg administered 30 min prior to maximal electric shock-challenge; type: functional, organism-based; parameters: dose 20 mg/kg
Mus musculus [8] = test: Anticonvulsant activity in Swiss albino Mus musculus (mouse) assessed as time duration of maximal electric shock-induced tonic extension at 20 mg/kg administered 30 min prior to maximal electric shock-challenge (reference value: 20.66 +/- 0.8433 secs); type: functional
Mus musculus [9] = test: Anticonvulsant activity against maximal electric shock-induced seizures in Swiss albino Mus musculus (mouse) assessed as time duration of tonic flexions at 20 mg/kg administered 30 min prior to maximal electric shock-challenge (reference value: 0 secs); type: functional
Mus musculus [10] = test: Anticonvulsant activity in Swiss albino Mus musculus (mouse) assessed protection against PTZ-induced clonic convulsion at 20 mg/kg administered 60 min prior to PTZ-challenge measured up to 30 min relative to control; type: functional
Mus musculus [11] = test: Anticonvulsant activity in Swiss albino Mus musculus (mouse) assessed as latency time of maximal electric shock-induced clonus onset at 20 mg/kg administered 30 min prior to maximal electric shock-challenge (reference value: 3.16 +/- 0.0833 min); type: functional

SMILES | Activity (Mus musculus [1]) | Activity (Mus musculus [2]) | Time (Mus musculus [3]) | Time (Mus musculus [4]) | Time (Mus musculus [5]) | Time (Mus musculus [6]) | Activity (Mus musculus [7]) | Time (Mus musculus [8]) | Time (Mus musculus [9]) | Activity (Mus musculus [10]) | Time (Mus musculus [11])
O=C(Nc1nc2ccccc2s1)Oc1ccccc1 | Active | 100% | 11.47 min | 0 s | 9.54 s | – | – | – | – | – | –
CCOC(=O)Nc1nc2ccc(Cl)cc2s1 | Active | 66.66% | 5.4 min | 0 s | 9.27 s | 71.83 s | – | – | – | – | –
CCOC(=O)Nc1nc2ccccc2s1 | Active | 83.33% | 11.18 min | 0 s | 7.29 s | 86.66 s | – | – | – | – | –
O=C1NC(=O)C(c2ccccc2)(c2ccccc2)N1 [PHENYTOIN] | – | – | – | – | – | – | Active | 0 s | 5.34 s | 100% | 13.39 min
Cc1ccc2nc(NC(=O)Oc3ccccc3)sc2c1 | Active | 100% | 13.28 min | 0 s | 6.74 s | – | – | – | – | – | –
Cc1cccc2sc(NC(=O)Oc3ccccc3)nc12 | Active | 83.33% | 9.58 min | 0 s | 5.48 s | 75.166 s | – | – | – | – | –
O=C(Nc1nc2ccc([N+](=O)[O-])cc2s1)Oc1ccccc1 | Active | 100% | 10.34 min | 0 s | 6.32 s | – | – | – | – | – | –
COc1ccc2nc(NC(=O)Oc3ccccc3)sc2c1 | Active | 66.66% | 4.675 min | 0 s | 11.08 s | 80.5 s | – | – | – | – | –
O=C(Nc1nc2ccc(Cl)cc2s1)Oc1ccccc1 | Active | 66.66% | 11.2 min | 0 s | 8.34 s | 70.83 s | – | – | – | – | –
CCOC(=O)Nc1nc2ccc(CC)cc2s1 | Active | 83.33% | 10.415 min | 0 s | 8.12 s | 83 s | – | – | – | – | –
CCOC(=O)Nc1nc2ccc(OC)cc2s1 | Active | 100% | 9.56 min | 0 s | 6.4 s | – | – | – | – | – | –
CCOC(=O)Nc1nc2ccc(C)cc2s1 | Active | 100% | 12.55 min | 0 s | 6.24 s | – | – | – | – | – | –
CCOC(=O)Nc1nc2ccc([N+](=O)[O-])cc2s1 | Active | 83.33% | 8.37 min | 0 s | 7.44 s | 80.5 s | – | – | – | – | –
CCOC(=O)Nc1nc2c(C)cccc2s1 | Active | 83.33% | 10.36 min | 0 s | 7.33 s | 85.166 s | – | – | – | – | –
CCc1ccc2nc(NC(=O)Oc3ccccc3)sc2c1 | Active | 83.33% | 7.59 min | 0 s | 5.2916 s | 86 s | – | – | – | – | –
